Values quoted from earlier work in patent US20180147141A1, “CHEWING GUM COMPOSITION COMPRISING CANNABINOIDS AND GABAPENTIN” (AXIM Biotechnologies, Inc., priority 2016, published 2018).

System: GABA receptors
Details: at concentrations at or below 1 millimolar

SMILES: NCC1(CC(=O)O)CCCCC1 [Gabapentin, 1-(aminomethyl)cyclohexaneacetic acid]
- binding to GABA receptors: has not been shown to bind
